Measured values as given in patent US20240059677A1, “SUBSTITUTED PYRIMIDINE DERIVATIVES AS NICOTINIC ACETYLCHOLINESTERASE RECEPTOR ALPHA 6 MODULATOR” (priority 2020, published 2024).
pIC50: −log10 of the molar value.

Target: T1, human nAChRα6-α3 chimera, in addition to β2 and β3^V273S subunits (Homo sapiens, UniProt P32297+Q15825)
T1 construct: expressed in transfected cells
Test: fluorescence-based calcium assay: inhibition of nicotine stimulated nAChRα6 activity (FLIPR)
Settings: HEK cell line stably expressing the receptor; 10 min pre-incubation, nicotine EC80; 10-point curve, duplicate wells; read-out: IC50
Description: The ability of the test compounds to inhibit nicotine stimulated nAChRα6 activity was determined in a fluorescence-based calcium assay. Compound activity was determined using a HEK cell line stably expressing a human nAChRα6-α3 chimera, in addition to β2 and β3^V273S subunits (as in Capelli et al, Br J Pharmacol 163(2): 313-29 2011). In this cell line, nicotine stimulated an increase in intracellular calcium concentration, measured as an increase in fluorescence when cells were incubated with a calcium sensitive dye. Test compounds were pre-incubated with cells prior to nicotine stimulation to detect any reduction in the magnitude of the nicotine response.
The day prior to the assay, compounds were serially diluted in DMSO (200× final assay concentration (FAC)), in 384-well plates which were then stored in the dark at room temperature (RT) until use. Cells were seeded at 20 k/well in black, poly-D-lysine coated, clear bottom 384-well plates and incubated for 4 hours at 37° C., followed by overnight incubation at 30° C. The following day, the DMSO compound plate was diluted 1:20 (10×FAC) in assay buffer (HEPES buffered saline solution with 10 mM HEPES, 0.1% bovine serum albumin, 1 mM probenecid). A nicotine solution was prepared in assay buffer (7×FAC) and dispensed into a 384-well plate. The growth media was removed from the cell plate, replaced with 53 μl calcium dye/well (Calcium 5; Molecular Devices) and the plate incubated at 30° C. for 45 minutes. Test compounds were then added to the cells (7 μl of 10×FAC) and incubated for 10 minutes, after which nicotine EC80 (10 μl of 7×FAC) was added and changes in fluorescence measured using a FLIPR plate reader (Molecular Devices).
Compound activity was examined using a 10-point, half-log concentration-response range and each concentration was tested in duplicate wells.

T1 sequence (Q05901 25-458 V273S): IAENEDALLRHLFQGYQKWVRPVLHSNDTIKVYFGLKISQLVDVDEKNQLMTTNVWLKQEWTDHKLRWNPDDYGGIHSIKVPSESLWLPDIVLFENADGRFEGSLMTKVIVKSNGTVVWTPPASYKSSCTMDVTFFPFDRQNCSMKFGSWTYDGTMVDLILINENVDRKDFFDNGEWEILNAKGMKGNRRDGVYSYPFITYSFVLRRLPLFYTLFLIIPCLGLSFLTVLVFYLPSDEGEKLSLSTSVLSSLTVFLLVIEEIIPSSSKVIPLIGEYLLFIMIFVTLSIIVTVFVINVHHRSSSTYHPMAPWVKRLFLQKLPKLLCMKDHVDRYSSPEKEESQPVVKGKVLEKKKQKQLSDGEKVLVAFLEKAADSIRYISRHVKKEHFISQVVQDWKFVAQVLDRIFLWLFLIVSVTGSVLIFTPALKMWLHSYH
T1 sequence (P17787 26-502, stated change not applied, further chain): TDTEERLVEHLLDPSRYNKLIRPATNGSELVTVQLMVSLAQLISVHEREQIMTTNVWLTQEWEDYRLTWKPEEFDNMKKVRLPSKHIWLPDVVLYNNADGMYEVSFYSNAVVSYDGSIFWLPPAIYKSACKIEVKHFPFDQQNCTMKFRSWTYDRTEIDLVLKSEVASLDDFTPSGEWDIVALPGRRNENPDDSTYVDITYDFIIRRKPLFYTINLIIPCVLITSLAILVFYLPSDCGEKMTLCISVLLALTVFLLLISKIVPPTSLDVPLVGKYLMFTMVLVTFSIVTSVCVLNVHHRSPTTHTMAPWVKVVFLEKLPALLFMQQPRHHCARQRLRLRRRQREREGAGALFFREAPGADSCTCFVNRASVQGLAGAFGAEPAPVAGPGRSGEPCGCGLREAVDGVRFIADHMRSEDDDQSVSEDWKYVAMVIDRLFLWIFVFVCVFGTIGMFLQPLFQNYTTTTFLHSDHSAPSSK
T1 sequence (Q15825+P32297 fused with the stated changes): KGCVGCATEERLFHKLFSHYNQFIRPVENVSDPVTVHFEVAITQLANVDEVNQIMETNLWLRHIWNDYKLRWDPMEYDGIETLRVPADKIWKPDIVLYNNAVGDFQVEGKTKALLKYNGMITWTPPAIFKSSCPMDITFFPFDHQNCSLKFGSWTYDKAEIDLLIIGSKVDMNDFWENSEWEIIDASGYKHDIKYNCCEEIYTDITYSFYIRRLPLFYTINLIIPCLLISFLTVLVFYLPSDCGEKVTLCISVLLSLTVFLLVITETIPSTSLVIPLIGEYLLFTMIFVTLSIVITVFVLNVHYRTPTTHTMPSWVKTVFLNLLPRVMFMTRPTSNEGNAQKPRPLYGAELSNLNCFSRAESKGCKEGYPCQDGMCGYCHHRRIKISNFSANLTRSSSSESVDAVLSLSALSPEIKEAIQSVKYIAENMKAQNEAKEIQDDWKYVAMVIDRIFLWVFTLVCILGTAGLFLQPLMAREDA

First: COc1ccc(-c2cnc(NC3CCCC(OC)C3)nc2C)c(F)c1 (single isomer, unassigned) [Example 53b, 5-(2-fluoro-4-methoxyphenyl)-N-(3-methoxycyclohexyl)-4-methyl-pyrimidin-2-amine]
Second: COc1ccc(-c2cnc(NC3CCCC(N(C)C)C3)nc2C#N)c(F)c1 (single isomer, unassigned) [Example 56a, 2-((3-(dimethylamino)cyclohexyl)amino)-5-(2-fluoro-4-methoxyphenyl) pyrimidine-4-carbonitrile]
The pIC50 of the first is 0.75 log units lower: 6.13 for the first, 6.88 for the second. The second is the more potent here.

Going from `COc1ccc(-c2nnc(NCC3CCCN3C)nc2C)c(F)c1` (single isomer, unassigned) [Example 54a, 6-(2-fluoro-4-methoxyphenyl)-5-methyl-N-((1-methylpyrrolidin-2-yl)methyl)-1,2,4-triazin-3-amine] to `COc1ccc(-c2nnc(NCC3CCCCN3C)nc2C)c(F)c1` (single isomer, unassigned) [Example 57a, 6-(2-fluoro-4-methoxyphenyl)-5-methyl-N-((1-methylpiperidin-2-yl)methyl)-1,2,4-triazin-3-amine], the pIC50 rises from 6.48 to 6.86 (0.38 log units). The second is the more potent here.

Going from `COc1ccc(-c2nnc(NCC3CCCN3C)nc2C)c(F)c1` (single isomer, unassigned) [Example 54b, 6-(2-fluoro-4-methoxyphenyl)-5-methyl-N-((1-methylpyrrolidin-2-yl)methyl)-1,2,4-triazin-3-amine] to `COc1ccc(-c2nnc(NCC3CCCCN3C)nc2C)c(F)c1` (single isomer, unassigned) [Example 57b, 6-(2-fluoro-4-methoxyphenyl)-5-methyl-N-((1-methylpiperidin-2-yl)methyl)-1,2,4-triazin-3-amine], the pIC50 rises from 6.35 to 6.84 (0.49 log units).

`Cc1nc(NC2CCCC(N(C)C)C2)ncc1-c1ccc(F)cc1F` (single isomer, unassigned) [Example 55a, N^1-(5-(2,4-difluorophenyl)-4-methyl-pyrimidin-2-yl)-N^3,N^3-dimethylcyclohexane-1,3-diamine] and `Cc1nc(NC2CC(N(C)C)C2)ncc1-c1ccc(F)cc1F` (single isomer, unassigned) [Example 68a, N^1-(5-(2,4-difluorophenyl)-4-methyl-pyrimidin-2-yl)-N^3,N^3-dimethylcyclobutane-1,3-diamine] are within 0.2 log units of each other in pIC50: 7.01 for the first, 7.11 for the second.

`Cc1nc(NC2CCCC(N(C)C)C2)ncc1-c1ccc(F)cc1F` (single isomer, unassigned) [Example 55b, N^1-(5-(2,4-difluorophenyl)-4-methyl-pyrimidin-2-yl)-N^3,N^3-dimethylcyclohexane-1,3-diamine] and `Cc1nc(NC2CC(N(C)C)C2)ncc1-c1ccc(F)cc1F` (single isomer, unassigned) [Example 68b, N^1-(5-(2,4-difluorophenyl)-4-methyl-pyrimidin-2-yl)-N^3,N^3-dimethylcyclobutane-1,3-diamine] are within 0.2 log units of each other in pIC50: 7.09 for the first, 7.17 for the second.

`COc1ccc(-c2cnc(NC3CCCC(N(C)C)C3)nc2C#N)c(F)c1` (single isomer, unassigned) [Example 56b, 2-((3-(dimethylamino)cyclohexyl)amino)-5-(2-fluoro-4-methoxyphenyl) pyrimidine-4-carbonitrile] and `CN(C)C1CCCC(Nc2ncc(-c3ccc(F)cc3F)c(C#N)n2)C1` (single isomer, unassigned) [Example 59a, 5-(2,4-difluorophenyl)-2-((3-(dimethylamino)cyclohexyl)amino) pyrimidine-4-carbonitrile] are within 0.2 log units of each other in pIC50: 6.79 for the first, 6.69 for the second.

Compared with `CN(C)C1CCC(Nc2ncc(-c3ccc(F)cc3F)c(C#N)n2)C1` (single isomer, unassigned) [Example 58a, 5-(2,4-difluorophenyl)-2-((3-(dimethylamino)cyclopentyl)amino) pyrimidine-4-carbonitrile], `CN(C)C1CCCC(Nc2ncc(-c3ccc(F)cc3F)c(C#N)n2)C1` (single isomer, unassigned) [Example 59b, 5-(2,4-difluorophenyl)-2-((3-(dimethylamino)cyclohexyl)amino) pyrimidine-4-carbonitrile] is 0.55 log units lower in pIC50: 7.42 for the first, 6.87 for the second. The first is the more potent here.

`CN(C)C1CCC(Nc2ncc(-c3ccc(F)cc3F)c(C#N)n2)C1` (single isomer, unassigned) [Example 58b, 5-(2,4-difluorophenyl)-2-((3-(dimethylamino)cyclopentyl)amino) pyrimidine-4-carbonitrile] and `Cc1nc(NC2CCCN(C)C2)ncc1-c1ccc(F)cc1F` (single isomer, unassigned) [Example 77a, 5-(2,4-difluorophenyl)-4-methyl-N-(1-methylpiperidin-3-yl)pyrimidin-2-amine] are within 0.2 log units of each other in pIC50: 7.25 for the first, 7.15 for the second.

`Cc1nc(NC(C)C2CCN(C)C2)ncc1-c1ccc(F)cc1F` (single isomer, unassigned) [Example 64a, 5-(2,4-difluorophenyl)-4-methyl-N-(1-(1-methylpyrrolidin-3-yl)ethyl) pyrimidin-2-amine] and `Cc1nc(NC2CCCN(C)C2)ncc1-c1ccc(F)cc1F` (single isomer, unassigned) [Example 77b, 5-(2,4-difluorophenyl)-4-methyl-N-(1-methylpiperidin-3-yl)pyrimidin-2-amine] are within 0.2 log units of each other in pIC50: 7.05 for the first, 7.03 for the second.

`Cc1nc(NC(C)C2CCN(C)C2)ncc1-c1ccc(F)cc1F` (single isomer, unassigned) [Example 64b, 5-(2,4-difluorophenyl)-4-methyl-N-(1-(1-methylpyrrolidin-3-yl)ethyl) pyrimidin-2-amine] and `CCN1CCC[C@@H](Nc2ncc(-c3ccc(F)cc3F)c(C)n2)C1` (single isomer, unassigned) [Example 78a] are within 0.2 log units of each other in pIC50: 7.06 for the first, 7.21 for the second.

Going from `COc1ccc(-c2nnc(NC3CCCN(C)C3)nc2C)c(F)c1` (single isomer, unassigned) [Example 69a, 6-(2-fluoro-4-methoxyphenyl)-5-methyl-N-(1-methylpiperidin-3-yl)-1,2,4-triazin-3-amine] to `COc1ccc(-c2nnc(NC3CCCN(C(C)C)C3)nc2C)c(F)c1` (single isomer, unassigned) [Example 76a, 6-(2-fluoro-4-methoxyphenyl)-N-(1-isopropylpiperidin-3-yl)-5-methyl-1,2,4-triazin-3-amine], the pIC50 rises from 6.36 to 6.93 (0.57 log units).

First: COc1ccc(-c2nnc(NC3CCCN(C)C3)nc2C)c(F)c1 (single isomer, unassigned) [Example 69b, 6-(2-fluoro-4-methoxyphenyl)-5-methyl-N-(1-methylpiperidin-3-yl)-1,2,4-triazin-3-amine]
Second: COc1ccc(-c2nnc(NC3CCCN(C(C)C)C3)nc2C)c(F)c1 (single isomer, unassigned) [Example 76b, 6-(2-fluoro-4-methoxyphenyl)-N-(1-isopropylpiperidin-3-yl)-5-methyl-1,2,4-triazin-3-amine]
The pIC50 of the first is 0.46 log units lower: 6.51 for the first, 6.97 for the second. The second is the more potent here.

Going from `Cc1nc(NCC2CCCN2C)nnc1-c1ccc(F)cc1F` (single isomer, unassigned) [Example 74a, 6-(2,4-difluorophenyl)-5-methyl-N-((1-methylpyrrolidin-2-yl)methyl)-1,2,4-triazin-3-amine] to `Cc1nc(NCC2COCCN2C)ncc1-c1ccc(F)cc1F` (single isomer, unassigned) [Example 79a, 5-(2,4-difluorophenyl)-4-methyl-N-((4-methylmorpholin-3-yl)methyl) pyrimidin-2-amine], the pIC50 rises from 6.16 to 6.38 (0.22 log units). The second is the more potent here.

Compared with `Cc1nc(NCC2CCCN2C)nnc1-c1ccc(F)cc1F` (single isomer, unassigned) [Example 74b, 6-(2,4-difluorophenyl)-5-methyl-N-((1-methylpyrrolidin-2-yl)methyl)-1,2,4-triazin-3-amine], `Cc1nc(NCC2COCCN2C)ncc1-c1ccc(F)cc1F` (single isomer, unassigned) [Example 79b, 5-(2,4-difluorophenyl)-4-methyl-N-((4-methylmorpholin-3-yl)methyl) pyrimidin-2-amine] is 0.70 log units higher in pIC50: 5.83 for the first, 6.53 for the second. The second is the more potent here.

`Cc1nc(NCC2NCCC2(F)F)ncc1-c1ccc(F)cc1F` (single isomer, unassigned) [Example 83a, 5-(2,4-difluorophenyl)-N-((3,3-difluoropyrrolidin-2-yl)methyl)-4-methyl-pyrimidin-2-amine] and `Cc1nc(NCC2N(C)CCC2(F)F)ncc1-c1ccc(F)cc1F` (single isomer, unassigned) [Example 84a, N-((3,3-difluoro-1-methylpyrrolidin-2-yl)methyl)-5-(2,4-difluorophenyl)-4-methyl-pyrimidin-2-amine] are within 0.2 log units of each other in pIC50: 5.94 for the first, 5.82 for the second.

First: Cc1nc(NCC2NCCC2(F)F)ncc1-c1ccc(F)cc1F (single isomer, unassigned) [Example 83b, 5-(2,4-difluorophenyl)-N-((3,3-difluoropyrrolidin-2-yl)methyl)-4-methyl-pyrimidin-2-amine]
Second: Cc1nc(NCC2N(C)CCC2(F)F)ncc1-c1ccc(F)cc1F (single isomer, unassigned) [Example 84b, N-((3,3-difluoro-1-methylpyrrolidin-2-yl)methyl)-5-(2,4-difluorophenyl)-4-methyl-pyrimidin-2-amine]
The pIC50 of the first is 0.56 log units higher: 6.34 for the first, 5.78 for the second.
